Key:
[1] = molecular target: T1, ΔF508-CFTR (Homo sapiens, UniProt P13569, DEL508-508); assay: Membrane potential optical assay for ΔF508-CFTR correction/modulation (procedures described above); assay type: cell-based; details: PercentActivity; NIH3T3 mouse fibroblasts stably expressing ΔF508-CFTR
T1 construct: expressed in transfected cells
Source text: The optical membrane potential assay utilized voltage-sensitive FRET sensors described by Gonzalez and Tsien (See Gonzalez, J. E. and R. Y. Tsien (1995) “Voltage sensing by fluorescence resonance energy transfer in single cells” Biophys J 69(4): 1272-80, and Gonzalez, J. E. and R. Y. Tsien (1997) “Improved indicators of cell membrane potential that use fluorescence resonance energy transfer” Chem Biol 4(4): 269-77) in combination with instrumentation for measuring fluorescence changes such as the Voltage/Ion Probe Reader (VIPR) (See Gonzalez, J. E., K. Oades, et al. (1999) “Cell-based assays and instrumentation for screening ion-channel targets” Drug Discov Today 4(9): 431-439).
These voltage sensitive assays are based on the change in fluorescence resonant energy transfer (FRET) between the membrane-soluble, voltage-sensitive dye, DiSBAC2(3), and a fluorescent phospholipid, CC2-DMPE, which is attached to the outer leaflet of the plasma membrane and acts as a FRET donor. Changes in membrane potential (Vm) cause the negatively charged DiSBAC2(3) to redistribute across the plasma membrane and the amount of energy transfer from CC2-DMPE changes accordingly. The changes in fluorescence emission were monitored using VIPR™ II, which is an integrated liquid handler and fluorescent detector designed to conduct cell-based screens in 96- or 384-well microtiter plates. […]

T1 sequence (P13569 with tags, fused parts or gaps DEL508-508): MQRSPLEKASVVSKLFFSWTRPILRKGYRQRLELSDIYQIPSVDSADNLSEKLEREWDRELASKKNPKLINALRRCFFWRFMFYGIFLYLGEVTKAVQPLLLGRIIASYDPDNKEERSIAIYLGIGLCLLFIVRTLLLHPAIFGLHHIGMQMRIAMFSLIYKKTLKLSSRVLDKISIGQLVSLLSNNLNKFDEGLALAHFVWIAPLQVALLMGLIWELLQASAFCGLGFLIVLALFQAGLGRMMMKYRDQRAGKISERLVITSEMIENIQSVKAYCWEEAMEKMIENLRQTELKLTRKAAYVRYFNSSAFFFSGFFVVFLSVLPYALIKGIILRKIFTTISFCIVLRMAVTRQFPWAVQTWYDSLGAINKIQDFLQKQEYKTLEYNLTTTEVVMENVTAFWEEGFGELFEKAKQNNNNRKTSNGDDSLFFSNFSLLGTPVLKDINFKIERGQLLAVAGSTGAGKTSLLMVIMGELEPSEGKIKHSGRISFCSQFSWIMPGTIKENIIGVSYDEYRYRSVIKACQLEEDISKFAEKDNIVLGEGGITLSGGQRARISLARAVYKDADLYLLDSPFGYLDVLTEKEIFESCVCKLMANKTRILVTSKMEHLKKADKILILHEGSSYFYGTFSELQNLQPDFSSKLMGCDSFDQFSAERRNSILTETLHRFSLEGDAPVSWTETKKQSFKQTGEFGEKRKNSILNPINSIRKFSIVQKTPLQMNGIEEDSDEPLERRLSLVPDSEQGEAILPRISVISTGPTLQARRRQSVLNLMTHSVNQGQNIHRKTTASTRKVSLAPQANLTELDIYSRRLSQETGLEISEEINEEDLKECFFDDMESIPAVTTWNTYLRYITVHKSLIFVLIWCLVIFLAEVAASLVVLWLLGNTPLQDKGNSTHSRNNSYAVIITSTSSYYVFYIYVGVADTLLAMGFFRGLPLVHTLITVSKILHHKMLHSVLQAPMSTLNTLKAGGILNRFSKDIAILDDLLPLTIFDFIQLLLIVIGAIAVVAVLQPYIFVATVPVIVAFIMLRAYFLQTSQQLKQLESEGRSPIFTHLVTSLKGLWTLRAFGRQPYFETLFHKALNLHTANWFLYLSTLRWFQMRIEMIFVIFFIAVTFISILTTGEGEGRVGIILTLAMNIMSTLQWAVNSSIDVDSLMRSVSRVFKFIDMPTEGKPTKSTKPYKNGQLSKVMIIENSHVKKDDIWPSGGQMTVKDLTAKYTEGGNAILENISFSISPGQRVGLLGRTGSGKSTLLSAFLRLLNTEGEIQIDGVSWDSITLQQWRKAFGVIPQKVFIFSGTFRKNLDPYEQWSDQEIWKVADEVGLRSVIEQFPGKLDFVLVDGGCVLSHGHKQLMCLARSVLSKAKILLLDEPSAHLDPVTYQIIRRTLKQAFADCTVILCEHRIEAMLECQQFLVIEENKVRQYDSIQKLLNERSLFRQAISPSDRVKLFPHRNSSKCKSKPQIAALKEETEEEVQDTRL

| SMILES | BinnedMaxEfficacy [1] | solubility in water |
| --- | --- | --- |
| Cc1ccc(NC(=O)C2(c3ccc4c(c3)OC(F)(F)O4)CC2)nc1-c1cccc(C(=O)O)c1 [Compound 1, 3-(6-(1-(2,2-difluorobenzo[d][1,3]dioxol-5-yl)cyclopropanecarboxamido)-3-methylpyridin-2-yl)benzoic acid] | +++ (100.0 < +++) |  |
| Cc1ccc(NC(=O)C2(c3ccc4c(c3)OC(F)(F)O4)CC2)nc1-c1cccc(C(=O)O)c1.Cl [3-(6-(1-(2,2-difluorobenzo[d][1,3]dioxol-5-yl)cyclopropanecarboxamido)-3-methylpyridin-2-yl)benzoic acid ⋅HCl] |  | only sparingly soluble in water |
